The record followed here is patent US20230279016A1, “Tetrahydropyrazolopyrimidines and Related Analogs for Inhibiting YAP/TAZ-TEAD” (THE KATHOLIEKE UNIVERSITEIT LEUVEN, priority 2021, published 2023).

SMILES strings stand for the structures.

This assay relates to YAP/TAZ-TEAD transcription. Kind of assay: Reporter gene assay for measuring the inhibition of YAP/TAZ-TEAD transcription (TEAD-responsive element luciferase reporter in Hek293T cells). It is filed as cell-based. Conditions: Hek293T cells transiently transfected with TEAD-responsive element luciferase reporter, 24 hours incubation. The procedure: Hek293T cells are cultured in DMEM supplemented with 10% fetal bovine serum, Sodium pyruvate, Sodium bicarbonate, L-glutamine. The cells are harvested and transiently transfected with TEAD-responsive element luciferase reporter. Transfected cells are plated in 384-wells plate containing pre-diluted compounds. After 24 hours incubation at 37° C./5%CO2, assay plates were cooled down to RT and levelled to an equal volume per well, prior to the addition of 25 uL luciferase substrate SteadyLite (Perkin Elmer)/well. The plate was shaken for 10 min at 600 rpm, centrifuged for 1min at 500 rpm and measured with an Envision reader (PerkinElmer). The amount of relative light units produced by the TEAD reporter is used to calculated percent of inhibition.
The percent of reporter inhibition was calculated in the presence of a positive control inhibitor (100% inhibition) versus a condition with the presence of the vehicle basal activity of the reporter (0% inhibition). The ability of a test compound to inhibit this activity was determined as:
Percentage inhibition=[1-((RLU determined in the presence of vehicle—RLU determined for sample with test compound present) divided by (RLU determined in the presence of vehicle — RLU determined for sample with positive control inhibitor))] * 100
The activities of the example compounds tested are depicted in the table below. The activity ranges A, B and C refer to EC50 values in the reporter gene assay as described as follows: “A”: EC50 <1 μM; “B” : 1 μM≤EC50≤20 μM and “C” : EC50>20 μM, NT=not tested.
(In a reporter assay the amount or activity of a reporter protein is the signal.)

As usually defined, the EC50 is the concentration that produces a half-maximal response. For `C=CC(=O)NC1CN(c2ccc(C(F)(F)F)cc2F)c2ccnn2C1` (single isomer, unassigned) [Cpd. No. 065-En2, (R)- or (S)-N-(4-(2-fluoro-4-(trifluoromethyl)phenyl)-4,5,6,7-tetrahydropyrazolo[1,5-a]pyrimidin-6-yl)acrylamide], the EC50 is < 1000 nM. Consider `C=CC(=O)NCC1CN(c2ccc(C(F)(F)F)cc2)c2cc(C3CC3)nn2C1` (single isomer, unassigned) [Cpd. No. 031-En2, (R)- or (S)-N-((2-cyclopropyl-4-(4-(trifluoromethyl)phenyl)-4,5,6,7-tetrahydropyrazolo[1,5-a]pyrimidin-6-yl)methyl)acrylamide], for which the EC50 was < 1000 nM. For the compound `CS(=O)(=O)N1CCC2(CN(c3ccc(C(F)(F)F)cc3)c3ccnn3C2)C1=O` (single isomer, unassigned) [Cpd. No. 089-En1, (R)- or (S)-1′-(methylsulfonyl)-4-(4-(trifluoromethyl)phenyl)-4,5-dihydro-7H-spiro[pyrazolo[1,5-a]pyrimidine-6,3′-pyrrolidin]-2′-one], the EC50 (Homo sapiens, HEK-293T, 24 h) was > 20000 nM. Same read-out and setting: next, `CC(=O)N(CC#N)CC1CN(c2ccc(C(F)(F)F)cc2)c2ccnn2C1` (stereo not drawn) [Cpd. No. 043, N-(cyanomethyl)-N-((4-(4-(trifluoromethyl)phenyl)-4,5,6,7-tetrahydropyrazolo[1,5-a]pyrimidin-6-yl)methyl)acetamide]: > 20000 nM; `C=CC(=O)NC1CN(c2ccc(Cl)cc2)c2ccnn2C1` (stereo not drawn) [Cpd. No. 066, N-(4-(4-chlorophenyl)-4,5,6,7-tetrahydropyrazolo[1,5-a]pyrimidin-6-yl)acrylamide]: < 1000 nM.

Regarding `C=CC(=O)NCC1CN(c2ccc(C(F)(F)F)cc2)c2cc(C)nn2C1` (single isomer, unassigned) [Cpd. No. 029-En1, (R)- or (S)-N-((2-methyl-4-(4-(trifluoromethyl)phenyl)-4,5,6,7-tetrahydropyrazolo[1,5-a]pyrimidin-6-yl)methyl)acrylamide], the EC50 was < 1000 nM. As to `C=CC(=O)NCC1CN(c2cccc(F)c2)c2ccnn2C1` (stereo not drawn) [Cpd. No. 004, N-((4-(3-fluorophenyl)-4,5,6,7-tetrahydropyrazolo[1,5-a]pyrimidin-6-yl)methyl)acrylamide], the EC50 (Homo sapiens, HEK-293T, 24 h) was < 1000 nM. As to `Cn1ncc2c1CC(CNS(C)(=O)=O)CN2c1ccc(OC(F)(F)F)cc1` (stereo not drawn) [Cpd. No. 078, N-((1-methyl-4-(4-(trifluoromethoxy)phenyl)-4,5,6,7-tetrahydro-1H-pyrazolo[4,3-b]pyridin-6-yl)methyl)methanesulfonamide], the EC50 (Homo sapiens, HEK-293T, 24 h) was > 20000 nM.

Consider `CCC(=O)NCC1Cc2nn(Cc3cccc(C(N)=O)c3)cc2N(c2ccc(C(F)(F)F)cc2)C1` (stereo not drawn) [Cpd. No. 083, 3-((6-(propionamide-methyl)-4-(4-(trifluoromethyl)phenyl)-4,5,6,7-tetrahydro-2H-pyrazolo[4,3-b]pyridin-2-yl)methyl)benzamide], for which the concentration for a half-maximal effect (EC50) is > 20000 nM. Same read-out and setting: next, `CN1CCC2(CN(c3ccc(C(F)(F)F)cc3)c3ccnn3C2)C1=O` (single isomer, unassigned) [Cpd. No. 090-En2, (R)- or (S)-1′-methyl-4-(4-(trifluoromethyl)phenyl)-4,5-dihydro-7H-spiro[pyrazolo[1,5-a]pyrimidine-6,3′-pyrrolidin]-2′-one]: > 20000 nM.

Consider `CCC(=O)NCC1Cc2nn(C)cc2N(c2ccc(OC(F)(F)F)cc2)C1` (stereo not drawn) [Cpd. No. 075, N-((2-methyl-4-(4-(trifluoromethoxy)phenyl)-4,5,6,7-tetrahydro-2H-pyrazolo[4,3-b]pyridin-6-yl)methyl)propionamide], for which, for the setting “Homo sapiens, HEK-293T, 24 h”, the EC50 lay in the range of 1000 to 20000 nM. For the compound `C=CC(=O)NCC1CN(c2ccc(C(F)(F)F)cc2)c2cc(C(F)(F)F)nn2C1` (single isomer, unassigned) [Cpd. No. 034-En1, (R)- or (S)-N-((2-(trifluoromethyl)-4-(4-(trifluoromethyl)phenyl)-4,5,6,7-tetrahydropyrazolo[1,5-a]pyrimidin-6-yl)methyl)acrylamide], the EC50 is < 1000 nM.
